Test results taken from US20100093613A1, “METHODS FOR IDENTIFYING AGENTS AND THEIR USE FOR THE PREVENTION OR STABILIZATION OF FIBROSIS” (priority 2007, published 2010).

Columns and labels:
[1] = test system: Fibroblasts; assay: BioMAP HDF3CT system (IL-1β + TNF-α + IFN-γ + TGF-β), scoring of readout parameters; format: cell-based, human
From the text: (§1) Each screened compound is scored according to its modulation of the selected readout parameters. Compounds receive a positive score (score of 1) or negative score (score of 0) for each readout parameter set forth in Table 2 that is modulated in the desired direction. […] Parameters may be penalized by making the positive score a −1 for parameters where regulation is opposite to the desired direction.
(§2) Cell culture. Human umbilical vein endothelial cells (HUVEC) were pooled from multiple donors, cultured according to standard methods, and plated into microtiter plates at passage 4. Cell culture medium for all systems containing HUVEC included hydrocortisone. Coronary artery smooth muscle cells (CASM3C) and umbilical artery smooth muscle cells (HSM3C) were cultured according to standard procedures. Peripheral blood mononuclear cells (PBMC) were prepared from buffy coats from normal human donors according to standard methods. Monocyte-derived macrophages were differentiated in the presence of M-CSF for 7 d according to standard procedures. Human dermal fibroblasts were pooled from 3 donors, cultured according to standard methods, and plated confluent 24 h before stimulation. Cell culture medium for all systems containing fibroblasts and keratinocytes contained low hydrocortisone. Epidermal keratinocytes and bronchial epithelial cells from 3 donors were cultured according to standard procedures and pooled when plated into microtiter plates. For keratinocyte-fibroblast co-cultures, cells were plated simultaneously 24 h before stimulation. For bronchial epithelial cell-fibroblast co-cultures, fibroblasts were plated and cultured 48 before addition of epithelial cells, then cultured another 24 hr before stimulation. Concentrations/amounts of agents added to confluent microtiter plates to build each system: cytokines (IL-1β, 1 ng/ml; TNF-α, 5 ng/ml; IFN-γ, 20 ng/ml; IL-4, 5 ng/ml), activators (SAg, 20 ng/ml; histamine, 10 μM; zymosan, 10 μg/ml; or LPS, 2 ng/ml), growth factors (TGF-β, 5 ng/ml; EGF, bFGF, and PDGF-BB, 10 ng/ml), and PBMC (7.5×10^4 cells/well) or macrophages (3.5×10^4 cells/well).
(§3) Compounds. Compounds were prepared in the solvent directed, added 1 hr before stimulation of the cells, and were present during the 24 hr stimulation period for the measurement of parameters listed in Table 2. For proliferation, compounds added 1 hr before stimulation of the cells with cytokines, and were present during the 48 to 72 hr assay. If prepared in DMSO, the final concentration of solvent was 0.1% or less.
(§4) Readout Parameter Measurements. The levels of readout parameters were measured by ELISA. Briefly, microtiter plates are treated, blocked, and then incubated with primary antibodies or isotype control antibodies (0.01-0.5 microg/ml) for 1 hr. After washing, plates were incubated with a peroxidase-conjugated anti-mouse IgG secondary antibody or a biotin-conjugated anti-mouse IgG antibody for 1 hr followed by streptavidin-HRP for 30 min. Plates were washed and developed with TMB substrate and the absorbance (OD) was read at 450 nm (subtracting the background absorbance at 650 nm). Quantitation of TNF-alpha or PGE2 in the LPS system was done using a commercially available kit according to the manufacturer's directions. Proliferation of endothelial cells (HUVEC and CAEC), smooth muscle cells (SMC and CASMC), and PBMC (T cells) was quantitated by Alamar Blue reduction or SRB.
(§5) Data analysis. Mean OD values for each parameter were calculated for compounds run in duplicate. The mean value (or single well OD value) for each parameter in a treated sample was then divided by the mean value from an appropriate control to generate a ratio. All ratios were then log10 transformed. 95% significance prediction envelopes (grey shading in Figures) were calculated for historical controls.

[2] = test system: Fibroblasts; assay: BioMAP HDF3CGF system (IL-1β + TNF-α + IFN-γ + EGF + bFGF + PDGFbb), scoring of readout parameters; format: cell-based, human; settings: for PAI-1 score: desired change decrease; for MMP-1 score: desired change increase; for EGFR score: desired no change or increase
Description: In the “HDF-3CGF” system, dermal fibroblast cells, usually primary human dermal fibroblast cells are cultured alone or in the presence of lung epithelial cells, usually primary human lung epithelial cells, with two or more factors selected from: TNF, IL-1, IFNγ, EGF, bFGF+HSPG (heparan sulfate proteoglycan), and PDGFbb. In some embodiments three or more factors are present, four or more, five or more, or all six factors are present.
Human neonatal dermal fibroblasts (HDFn) or adult lung fibroblasts (HDFp) or fibroblasts from tissues such as liver, heart, or kidney are used. Cells are cultured at 3×10^4 cells/ml in DMEM/F12 (50/50) from Cellgro, supplemented with LSGS kit (from Cascade Biologics); fetal bovine serum, 2% v/v, hydrocortisone 100 nM, human epidermal growth factor 10 ng/ml, basic fibroblast growth factor 3 ng/ml and heparin 10 μg/ml, and penicillin/streptomycin amphotericin B solution (PSA), until confluency. Medium is replaced with DMEM/F12 with only penicillin/streptomycin amphotericin B solution (PSA), then 24 hours later, the following are applied:
After another 24, 48 or 72 hours incubation (37° C., 5% CO2) the cultures are evaluated for the following parameters: ICAM, VCAM, CD40, CD90, IP-10, MCP-1, Collagen I, Mig, m-CSF, TIMP-2, PAI-I, IL-8, Collagen III, HLA-DR, MMP-1, MMP-9, proliferation, TGF-b1, eotaxin-3, decorin, alpha-SMC, MLCK, I-TAC, EGFR, TIMP-1.
Cell culture. […] Human dermal fibroblasts were pooled from 3 donors, cultured according to standard methods, and plated confluent 24 h before stimulation. Cell culture medium for all systems containing fibroblasts and keratinocytes contained low hydrocortisone. […] Concentrations/amounts of agents added to confluent microtiter plates to build each system: cytokines (IL-1β, 1 ng/ml; TNF-α, 5 ng/ml; IFN-γ, 20 ng/ml; IL-4, 5 ng/ml), activators (SAg, 20 ng/ml; histamine, 10 μM; zymosan, 10 μg/ml; or LPS, 2 ng/ml), growth factors (TGF-β, 5 ng/ml; EGF, bFGF, and PDGF-BB, 10 ng/ml), and PBMC (7.5×10^4 cells/well) or macrophages (3.5×10^4 cells/well).

[3] = test system: Bronchial epithelial cells; assay: BioMAP BE4T system (IL-4 + TNF-a), scoring of readout parameters; format: cell-based, human; set-up: key: 1 = modulated in desired direction, 0 = not (−1 = opposite); settings: for PAI-1 score: desired change decrease; for EGFR score: desired no change or increase
Description: In the “BE4T” system, bronchial epithelial cells, usually primary human bronchial epithelial cells, are cultured in the presence of TNF-α and IL-4.
as §1, §2, §3, §4, §5

[4] = test system: Peripheral Blood Mononuclear Cells + Umbilical Vein Endothelial Cells; assay: BioMAP LPS system (TLR4), scoring of readout parameters; format: cell-based, human; settings: LPS (by position); desired change decrease
From the text: as §1, §2, §3, §4, §5

[5] = test system: human primary cells; assay: Total score for desired parameter modulation over the BioMAP systems of Table 1; format: cell-based; settings: penalties not applied
From the text: as §1
The relative importance of each parameter may be weighted by the screener to select those parameters of greatest interest for a particular application.
Compounds were first selected to inhibit PAI-1 in the HDFT as an indication of TBF-b signaling inhibition without being cytotoxic. […] Blank spots in Table 3 were where parameter was not assayed. Penalties were not applied for this scoring.
BioMAP Systems are designed to model complex human disease biology in a practical in vitro format. This is achieved by stimulating human primary cells (single cell type or defined mixtures of cell types) such that multiple disease-relevant signaling pathways are simultaneously active. The choice of cell types and stimulations is guided by the knowledge of disease biology and mechanisms. Incorporating appropriate cell types and stimulating signaling pathways relevant to disease states allows association of biological activities detected in BioMAP Systems with disease processes. Drug effects are then recorded by measuring biologically meaningful protein readouts that provide coverage of biological space of interest (e.g., inflammation, tissue remodeling) and allow discrimination between different drug classes tested.
as §2, §3
Readout Parameter Measurements. The levels of readout parameters were measured by ELISA.

[6] = test system: Bronchial epithelial cells; assay: BioMAP BE3C system (IL-1β + TNF-α + IFN-γ), scoring of readout parameters; format: cell-based, human; settings: for PAI-1 score: desired change decrease; for EGFR score: desired no change or increase
From the text: as §1, §2, §3, §4, §5

Compound	MMP-1 score [1]	PAI-1 score [2]	MMP-1 score [2]	EGFR score [2]	uPA score [3]	PAI-1 score [3]	EGFR score [3]	TF score [4]	Score (Fraction correctly modulated parameters out of 45-58 total) [5]	HLA-DR score [6]	MMP-1 score [6]	uPA score [6]	PAI-1 score [6]	EGFR score [6]
CCc1oc2ccccc2c1C(=O)c1cc(Br)c(O)c(Br)c1 [Benzbromarone]	0	1	0	0	1	0	0	0	0.36	0	1	0	1	0
O=c1cc(-c2ccc(O)c(O)c2)oc2cc(O)cc(O)c12 [Luteolin]	0	1	0	0	0	0	0	1	0.36	0	0	0	0	0
CCCCN(CCCC)CCC(O)c1cc2c(Cl)cc(Cl)cc2c2cc(C(F)(F)F)ccc12 (centres unmarked) [Halofantrine]	0	1	0	0	0	0	0	0	0.27	0	1	0	0	0
Fc1ccc(C(OCCN2CCN(CCCc3ccccc3)CC2)c2ccc(F)cc2)cc1 [GBR 12909]	0	1	0	0	0	0	0	0	0.29	0	1	0	0	0
COc1cc2c(c(OC)c1OC)-c1ccc(OC)c(=O)cc1[C@@H](NC(C)=O)CC2 [Colchicine]	0	0	0	0	1	0	0	0	0.17	0	0	0	0	0
CCN(CC)CCNc1ccc(CO)c2sc3ccccc3c(=O)c12 [Hycanthone]	0	1	0	0	0	1	0	1	0.28	0	0	0	1	0
C[C@]12C=CC(=O)C=C1CC[C@@H]1[C@@H]2[C@@H](O)C[C@@]2(C)[C@H]1CC[C@]2(O)C(=O)CO [Prednisolone]	0	0	0	0	0	0	0	0	0.17	0	0	0	0	0
Cc1c(Cl)cccc1Nc1ccccc1C(=O)O [Tolfenamic Acid]	1	0	0	0	0	0	0	0	0.33	0	1	0	1	0
(R)-(−)-Apomorphine	0	1	0	0	0	0	0	0	0.31	1	0	0	1	0
Cn1cnc([N+](=O)[O-])c1Sc1ncnc2nc[nH]c12 [Azathioprine]	0	0	0	0	0	0	0	0	0.12	0	0	0	0	0
O=C(O)c1ccccc1Nc1cccc(C(F)(F)F)c1 [Flufenamic Acid]	1	0	0	0	0	1	0	0	0.28	0	0	0	1	0
Antimycin A	0	1	0	0	0	1	0	1	0.45	0	0	0	1	0
COc1cc(-c2ccc(=O)[nH]n2)ccc1OC(F)F [Zardaverine]	0	1	0	0	0	0	0	1	0.25	0	0	0	0	0
